The supplement of paper PMC10307832

How the values were obtained:
Assay in all cases: relative viability (nuclei count vs DMSO), 5 days (fraction); higher = more cells survive
Idelalisib + Luminespib = compound: CC[C@H](Nc1ncnc2[nH]cnc12)c1nc2cccc(F)c2c(=O)n1-c1ccccc1 [Idelalisib] + CCNC(=O)c1noc(-c2cc(C(C)C)c(O)cc2O)c1-c1ccc(CN2CCOCC2)cc1 [Luminespib] (partner 0.01 µM)
Procedure, shortened: (§1)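 Cells from lung cancer lines were seeded into 1536-well plates and, one day later, dosed by pin tool. Treatments were either a single drug or a fixed dose of an anchor drug with five library-drug doses (not always all listed) in √10 steps. After 5 days, nuclei were stained in a one-step fixation (final 0.05% Triton X-100, 1% formaldehyde, 1 ug/ml Hoechst) and counted on 4× images, and relative viability is the treated-to-vehicle nuclei ratio, as the median of duplicate plates.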

Idelalisib + Phenformin = compound: CC[C@H](Nc1ncnc2[nH]cnc12)c1nc2cccc(F)c2c(=O)n1-c1ccccc1 [Idelalisib] + N=C(N)NC(=N)NCCc1ccccc1 [Phenformin] (partner 250 µM)
Procedure, shortened: as §1

Pemetrexed + OSI-027 = compound: Nc1nc2[nH]cc(CCc3ccc(C(=O)N[C@@H](CCC(=O)O)C(=O)O)cc3)c2c(=O)[nH]1 [Pemetrexed] + COc1cccc2cc(-c3nc([C@H]4CC[C@H](C(=O)O)CC4)n4ncnc(N)c34)[nH]c12 [OSI-027] (partner 0.5 µM)
Procedure, shortened: as §1

Pemetrexed + Palbociclib = compound: Nc1nc2[nH]cc(CCc3ccc(C(=O)N[C@@H](CCC(=O)O)C(=O)O)cc3)c2c(=O)[nH]1 [Pemetrexed] + CC(=O)c1c(C)c2cnc(Nc3ccc(N4CCNCC4)cn3)nc2n(C2CCCC2)c1=O [Palbociclib] (partner 0.5 µM)
Procedure, shortened: as §1

Cell Line	relative viability (Idelalisib + Luminespib; first compound 0.04 µM)	relative viability (Idelalisib + Luminespib; first compound 0.4 µM)	relative viability (Idelalisib + Luminespib; first compound 1.265 µM)	relative viability (Idelalisib + Luminespib; first compound 4 µM)	relative viability (Idelalisib + Phenformin; first compound 0.04 µM)	relative viability (Idelalisib + Phenformin; first compound 0.1265 µM)	relative viability (Idelalisib + Phenformin; first compound 0.4 µM)	relative viability (Idelalisib + Phenformin; first compound 1.265 µM)	relative viability (Idelalisib + Phenformin; first compound 4 µM)	relative viability (Pemetrexed + OSI-027; first compound 0.002 µM)	relative viability (Pemetrexed + OSI-027; first compound 0.006325 µM)	relative viability (Pemetrexed + OSI-027; first compound 0.02 µM)	relative viability (Pemetrexed + OSI-027; first compound 0.06325 µM)	relative viability (Pemetrexed + OSI-027; first compound 0.2 µM)	relative viability (Pemetrexed + Palbociclib; first compound 0.002 µM)	relative viability (Pemetrexed + Palbociclib; first compound 0.006325 µM)	relative viability (Pemetrexed + Palbociclib; first compound 0.02 µM)	relative viability (Pemetrexed + Palbociclib; first compound 0.06325 µM)	relative viability (Pemetrexed + Palbociclib; first compound 0.2 µM)	relative viability (Idelalisib + Luminespib; first compound 0.1265 µM)
NCI-H522	1.13	1.21	1.12	1.23	0.675	0.66	0.641	0.761	0.634	0.794	0.65	0.796	0.706	0.676	1.22	0.82	1.09	0.985	0.843	–
NCI-H2228	0.0989	0.16	0.175	0.133	0.348	0.371	0.162	0.221	0.235	0.506	–	0.566	0.565	0.218	0.579	0.755	0.746	0.341	0.268	0.17
LK-2	0.177	–	0.196	0.178	0.477	0.407	–	0.536	0.384	0.233	0.205	0.228	0.153	0.2	0.751	0.758	0.721	0.464	0.366	0.142
PC-3 [JPC-3]	0.487	0.69	0.65	0.497	0.454	0.484	0.477	0.451	0.42	0.59	0.786	0.715	0.916	0.765	0.483	0.54	0.536	0.578	0.503	0.65
